The values below come from a melting point compilation (Tetko et al.).

The compound `COC(=O)CNc1ncc(C)cc1[N+](=O)[O-]` showed a melting point of 107 to 109 °C.
Compound `CS(=O)(=O)c1ccc(Br)cc1N` came in with a melting point of 109 to 111 °C.
On to `COC(=O)C(=O)CC(=O)c1ccccc1OC`, for which the melting point was 80 to 84 °C.
Then `O=C(CO)N1CCCc2ccccc21`, with 80 to 82 °C; and `O=C1Nc2c(Cl)cc(Br)cc2C1=O`, with 225 to 227 °C; and `Cc1csc(NCCc2ccccc2)n1`, with 80 to 82 °C.
In the case of `CCc1ccc(N)cc1[N+](=O)[O-]` it was 44 to 46 °C.
Then `Sc1nnnn1CC1CCCO1` (configuration not stated), with 28 to 30 °C; and `CC1(C)CN(CC(N)=NO)CCO1`, with 75 to 77 °C.
Regarding `O=C(CC1CCOCC1)c1ccccc1`, the melting point lay within 60 to 62 °C.
Take `CCOc1ccc(OCC2CO2)cc1` (configuration not stated): the melting point fell in the range of 53 to 55 °C.
For `O=C(O)c1ccc(NS(=O)(=O)c2ccc(Cl)c(Cl)c2)cc1`, the melting point was 254 to 256 °C.
In the case of `O=C(O)c1ccc(=O)n(-c2ccc(F)cc2)n1` it was 239 to 241 °C.
The compound `O=C(O)C(Oc1ccc(F)cc1F)c1ccccc1` (configuration not stated) gave a melting point of 96 to 98 °C.
In the case of `CCS(=O)(=O)Nc1ccc(N)cc1` it was 88 to 90 °C; in that of `O=C(O)C1CC(O)CN1C(=O)c1ccc(F)cc1` (configuration not stated), 206 to 208 °C; in that of `c1cc(NC2CCCCCC2)c2cccnc2c1`, 100 to 102 °C.
In the case of `Nc1cc(-c2cccc(C(F)(F)F)c2)no1` it was 89 to 91 °C.
In the case of `NS(=O)(=O)c1cc(Br)cnc1Cl` it was 119 to 121 °C; in that of `CC(N)(C(=O)O)c1ccccc1` (configuration not stated), 169 to 171 °C; in that of `O=Cc1c[nH]c(-c2ccccc2)n1`, 159 to 161 °C.
Regarding `Nc1ccc(Cl)c(S(N)(=O)=O)c1`, the melting point is 161 to 163 °C.
For the compound `Nc1ccccc1NCCCn1ccnc1`, the melting point is 160 to 162 °C.
`COc1ccc2c(-c3ccccc3)cc(Cl)nc2c1` gave a melting point of 100 to 102 °C.
In the case of `CS(=O)(=O)c1nc2ccccc2s1` it was 86 to 89 °C; in that of `O=C(O)c1ccc(NC(=O)c2ccccn2)cc1`, 263 to 265 °C; in that of `NCc1cccc(N2CCOC2=O)c1`, 93 to 95 °C.
In the case of `Nc1ccc(OCc2cccc(F)c2)c(Cl)c1` it was 79 to 81 °C; in that of `NNC(=O)c1cccc2cccnc12`, 88 to 90 °C; in that of `O=C(O)Cc1csc(-c2ccc3c(c2)OCCO3)n1`, 188 to 190 °C.
The compound `COC(=O)c1noc(C)c1C(C)=O` had a melting point of 36 to 38 °C.
Then `NCc1ccc(N2CCNCC2)cc1`, with 163 to 165 °C.
Then `O=C(O)C1(Cc2ccc(Cl)cc2)CCCC1`, with 71 to 73 °C; and `O=c1[nH]c2ccc(S(=O)(=O)Cl)cc2o1`, with 151 to 155 °C.
Then `CC(C)c1ccccc1-n1ccnc1S`, with 173 to 177 °C; and `CCOc1ccc2c(c1)CC(C(=O)O)CO2` (configuration not stated), with 132 to 134 °C; and `O=C1Cc2cc(Br)c(Cl)cc2N1`, with 219 to 221 °C.
As to `CCc1nc2ccccc2c(C(=O)O)c1C`, the melting point lay in the range of 190 to 192 °C.
In the case of `COC(=O)c1cc(-c2cccc(C(F)(F)F)c2)ccc1N` it was 72 to 74 °C.
Then `Nc1cc(Cl)c([N+](=O)[O-])cc1OCc1ccccc1`, with 135 to 137 °C.
Then `CC(C)c1cc(C(=O)O)nn1-c1ccccc1`, with 137 to 139 °C.
Regarding `Nc1ccc(OCc2cn3ccccc3n2)cc1`, the melting point fell in the range of 146 to 148 °C.
On to `Cc1cccc2c1C(=O)NCCN2`, for which the melting point lay within 182 to 184 °C.
With `COC(=O)c1cc(S(=O)(=O)Cl)ccc1Cl`, the melting point lay within 79 to 81 °C.
Turning to `Nc1ccc2c(C(=O)O)c[nH]c2c1`, the melting point was in the range of 193 to 195 °C.
Take `NCc1ccc(N2CCS(=O)(=O)CC2)cc1`: the melting point was in the range of 97 to 99 °C.
In the case of `Cc1cc(Br)ncc1[N+](=O)[O-]` it was 64 to 66 °C.

In general, melting point refers to the temperature, or range, at which the solid turns liquid.
